The text below walks through data of patent US6369109B1, “Betulinic acid and derivatives thereof useful for the treatment of neuroectodermal tumor” (Deutsches Krebsforschungszentrum Stiftung des Offentlichen …, priority 1998, dated 2002).

This assay relates to caspase-3, caspase-8 and PARP in cytosolic extracts of SHEP cells. The assay is described as follows: Cell-free system of apoptosis: cleavage of caspases in cytosolic extracts by mitochondria. The format is biochemical, human. As to conditions: for effect of inhibitor on caspase processing by supernatants from betulinic acid-treated mitochondria: 50 μM bongkrekic acid or 60 μM zVAD-fmk, FIG. 10A. The protocol:
For determination of nuclear fragmentation, nuclei (10^3/μl) were incubated with mitochondria (1 μg/μl) in buffer D (10 mM HEPES, pH 7.4, 50 mM NaCl, 2 mM MgCl2, 5 mM EGTA, 1 mM DDT, 2 mM ATP, 10 mM phosphocreatine, 50 μg/ml creatine kinase, 10 μM cytochalasin B) for 2 h at 37° C. Nuclei were stained with propidium iodide ([…]) and analyzed by flow cytometry. For determination of caspase activation, cytosolic extracts (2 μg/μl) were incubated with mitochondria (1 μg/μl), cytochrome c (0.1-100 μM) or AIF-containing mitochondrial supernatant (0.5 μg/μl) in buffer D for 2 h at 37° C. Partially purified AIF (cytochrome c-free) was prepared as previously described (0.5 mg/ml, Susin et al., 1997, J. Exp. Med. 186, 5-37; Susin et al., 1996, J. Exp. Med. 184, 1331-41). Proteins were separated by 15% SDS-PAGE and Western blot analysis was performed as described above. To confirm equal loading of mitochondrial protein, all Western blots were also developed with an antibody directed against a 60 kDa mitochondrial antigen (data not shown).
SHEP cells transfected with bcl-2 or Bcl-XL or a neomycin resistance vector only were treated with 10 μg/ml betulinic acid for 16 h. Mitochondria were isolated and incubated with cytosolic extracts for 6 h in the presence or absence of 60 μM zVAD-fmk (left panel, cells). Alternatively, mitochondria isolated from untreated cells were incubated with 10 μg/ml betulinic acid or 5 mM atractyloside together with cytosolic extracts for 6 h in the presence or absence of 60 μMZ-VAD-fmk (right panel, mitos, Atra). Cytosolic extracts incubated with mitochondria isolated from untreated cells or with untreated mitochondria were used as control. 40 μg protein per lane isolated front cell lysates were separated by 15% SDS-PAGE. Immunodetection of caspases-3, -8 and PARP protein was performed by mouse anti-caspase-3 mAb, mouse anti-caspase-8 mAb, rabbit anti-PARP polyclonal antibody and ECL.
SHEP cells treated with 10 μg/ml betulinic acid for indicated times. Mitochondria were isolated and incubated with cytosolic extracts for 6 h. Western blot analysis was performed as described above.
Mitochondria isolated from SHEP cells transfected with bcl-2 or Bcl-XL or a neomycrn resistance vector only were treated with 10 μg/ml betulinic acid or 5 mM atractyloside for 0.5 h in the presence or absence of 50 μM bongkrekic acid or 60 μM zVAD-fmk. Mitochondrial supernatants obtained by high speed centrifugation were incubated with cytosolic extracts for 6 h at 37° C. Cytosolic extracts incubated with supernatants of untreated mitochondria were used as control. Western blot analysis was performed as described for FIG. 9A.
For determination of nuclear fragmentation, nuclei (10^3/μl) were incubated with mitochondria (1 μg/μl) in buffer D (10 mM HEPES, pH 7.4, 50 mM NaCl, 2 mM MgCl2, 5 mM EGTA, 1 mM DDT, 2 mM ATP, 10 mM phosphocreatine, 50 μg/ml creatine kinase, 10 μM cytochalasin B) for 2 h at 37° C. Nuclei were stained with propidium iodide ([…]) and analyzed by flow cytometry (Susin et al., 1997 Exp. Cell Res. 236:397-403). For determination of caspase activation, cytosolic extracts (2 μg/μl) were incubated with mitochondria (1 μg/μl), cytochrome c (10 μM) or AIF-containing mitochondrial supernatant (0.5 μg/μl) in buffer D for 2 h at 37° C. Proteins were separated by 15% SDS-PAGE and Western blot analysis was performed as described before.
SHEP cells transfected with Bcl-2 or Bcl-XL or a neomycin resistance vector only (Neo) were treated (Lanes+) with 0.5 μg/ml Doxo or 10 μg/ml Bet A for 16 h. Mitochondria were isolated and incubated with cytosolic extracts for 6 h. in the presence or absence of 60 μm Z-VAD.fmk. Western blot analysis was performed as described in FIG. 14A.

Molecules are shown by their SMILES. Residues, ends and D or L forms follow the SMILES beside them. *: point of attachment. Cbz = O=C(OCc1ccccc1)*; CH2F = FC*

For `CO[C@H](C/C=C\C=C\CC/C=C/C[C@H](C)/C=C/C(=C\C(=O)O)CC(=O)O)/C(C)=C\C=C(/C)C(=O)O` [bongkrekic acid], the “effect of inhibitor on caspase processing by supernatants from betulinic acid-treated mitochondria” value is “inhibited”. Regarding `COC(=O)C[C@H](NC(=O)[C@H](C)NC(=O)[C@@H](NC(=O)OCc1ccccc1)C(C)C)C(=O)CF` [zVAD-fmk, benzyloxycarbonyl-Val-Ala-Asp-Fluoromethylketone] (Cbz-Val-Ala-Asp(OMe)-CH2F), the “effect of inhibitor on caspase processing by supernatants from betulinic acid-treated mitochondria” value is recorded as “inhibited”. For the same compound, the “effect of inhibitor on cleavage of caspases by mitochondria from drug-treated cells” value (60 μM zVAD-fmk, FIG. 9A, 15A) is “blocked”. Consider `COc1cccc2c1C(=O)c1c(O)c3c(c(O)c1C2=O)C[C@@](O)(C(=O)CO)C[C@@H]3O[C@H]1C[C@H](N)[C@H](O)[C@H](C)O1` [doxorubicin], for which the “caspase and PARP processing in cytosolic extracts by mitochondria from drug-treated cells” value (10 μg/ml betulinic acid or 0.5 μg/ml doxorubicin 16 h, extracts 6 h, FIG. 9A, 15A) is “induced cleavage of caspases-3, -8 and PARP”.
